Results from patent US8785471B2, “Pharmaceutical composition containing ferulic acid and matrine compounds, the preparation and the use thereof” (Qingdao Qiyuan Bio-Technologies Co., Ltd., priority 2008, dated 2014).
Marks after values point to notes of the source that are not given here.

Assays:
[1] = system: rats; assay: Alzheimer's disease model rats, learning and memorizing ability in jumping tests; format: in vivo; conditions: intragastric 50 μg/kg, 7 days, mean ± SD
Protocol: (§1) Animal grouping, modeling and administration: 57 female Wistar rats (15 month old, 300-450 g, from animal center of Qingdao Institute for Drug Control, fed under normal conditions and natural light with unlimited drink and food) were randomly separated into 6 groups. Rats in normal control group were intraperitoneal injected with physiological saline for 6 weeks and injected physiological saline into the meynert nucleus basalis. Rats in modeling control group were injected intraperitoneally with D-galactose (48 mg/kg/d) for 6 weeks and injected with ibotenic acid into the meynert nucleus basalis. […] The rats in the normal and modeling control groups were intragastrically administrated with physiological saline for consecutive 7 days. 1 hour after the last administration, the learning ability of all the rats; was evaluated. Then, the rats were anesthetized with Pentobarbital. 5 ml blood was collected from abdominal aorta. Immediately the cortex tissue was collected and homogenated with physiological saline into 10% (WN). The AChE activity in cortex tissue and blood was measured according to the reagent kit instructions. • 3. Measurement: testing the memory ability of rats: the rats were placed in an electric box with an escaping platform for 3 minutes to get used to the new environments. The box was then connected to 50V AC. Upon being shocked, the rats can escape the electricity by jumping onto the platform. The shocked times (mistakes) within 5 minutes were recorded as a reference for the learning ability of the rats. After 24 hours, the rats were placed directly on the platform. The latency time for the first jump was recorded as a reference for the memory ability. The shocked times (mistakes) within 5 minutes were also recorded. The latency time of over 5 minutes was considered as 5 minutes.
T testing method was used to evaluate the difference within different groups, and the difference was statistically significant when P<0.05. • 4. […] P represents statistic difference. *P<0.05 means statistically obvious difference, **P<0.01 statistically significant difference.

[2] = system: AChE activity in cortex tissue and blood; conditions: model rats, intragastric 50 μg/kg, 7 days; mean ± SD
Protocol: as §1, with “Measurement: testing the memory ability of rats: the rats were placed in an electric box with an escaping platform for 3 minutes to get used to the new environments. The box was then connected to 50V AC. Upon being shocked, the rats can escape the electricity by jumping onto the platform.” left out, “After 24 hours, the rats were placed directly on the platform.” left out, “The latency time of over 5 minutes was considered as 5 minutes.” left out

## C/C=C1\[C@H]2C=C(C)C[C@]1(N)c1ccc(=O)[nH]c1C2 [Huperzine A, huperzine A]
[1]; after 24 hours
  Latency: 135 ± 55* s
[1]
  Mistakes within 5 min: 4 ± 2.3*
  Mistakes within 5 min after 24 hours: 2 ± 1.6*
[2]
  Blood TchE: 48 ± 35* mmol/L
  Cortex TchE: 2.0 ± 0.6* μmol/g
